Test results as given in PubChem BioAssay AID1918993 (Molecular Pharmacology Branch, DTP, NCI, 2023).

System: 233499-124-R-J3-PDC complex spheroid growth
Assay: Anticancer human tumor 233499-124-R-J3-PDC patient-derived colon adenocarcinoma cell line growth inhibition [AhR]
Conditions: for IC50: curve of first compound; for viability, T/C: stronger effect = lower value
Method in brief: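 Agents were dosed in half-log steps down from roughly clinical Cmax, or from 10 microM where Cmax was unknown, alone and with AhR antagonists. Read-out: percent test/control growth of tumor spheroids containing HUVEC and MSC stromal cells.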

[1] = second compound 0.1 µM, first compound 0.0316 µM
[2] = second compound 0.1 µM, first compound 0.1 µM
[3] = second compound 0.1 µM, first compound 0.316 µM
[4] = second compound 0.1 µM, first compound 1 µM
[5] = second compound 0.1 µM, first compound 3.16 µM
[6] = second compound 0.1 µM, first compound 10 µM
[7] = second compound 0.316 µM, first compound 0.0316 µM
[8] = second compound 0.316 µM, first compound 0.1 µM
[9] = second compound 0.316 µM, first compound 0.316 µM
[10] = second compound 0.316 µM, first compound 1 µM
[11] = second compound 0.316 µM, first compound 3.16 µM
[12] = second compound 0.316 µM, first compound 10 µM
[13] = second compound 1 µM, first compound 0.0316 µM
[14] = second compound 1 µM, first compound 0.1 µM
[15] = second compound 1 µM, first compound 0.316 µM
[16] = second compound 1 µM, first compound 1 µM
[17] = second compound 1 µM, first compound 3.16 µM
[18] = second compound 1 µM, first compound 10 µM
[19] = second compound 3.16 µM, first compound 0.0316 µM
[20] = second compound 3.16 µM, first compound 0.1 µM
[21] = second compound 3.16 µM, first compound 0.316 µM
[22] = second compound 3.16 µM, first compound 1 µM
[23] = second compound 3.16 µM, first compound 3.16 µM
[24] = second compound 3.16 µM, first compound 10 µM
[25] = second compound 10 µM, first compound 0.0316 µM
[26] = second compound 10 µM, first compound 0.1 µM
[27] = second compound 10 µM, first compound 0.316 µM
[28] = second compound 10 µM, first compound 1 µM
[29] = second compound 10 µM, first compound 3.16 µM
[30] = second compound 10 µM, first compound 10 µM
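Note: spheroids exposed to agents for seven days before reading.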

SMILES | IC50 (second compound 0.1 µM) [µM] | IC50 (second compound 0.316 µM) [µM] | IC50 (second compound 1 µM) [µM] | IC50 (second compound 3.16 µM) [µM] | IC50 (second compound 10 µM) [µM] | viability, T/C [1] [%] | viability, T/C [2] [%] | viability, T/C [3] [%] | viability, T/C [4] [%] | viability, T/C [5] [%] | viability, T/C [6] [%] | viability, T/C [7] [%] | viability, T/C [8] [%] | viability, T/C [9] [%] | viability, T/C [10] [%] | viability, T/C [11] [%] | viability, T/C [12] [%] | viability, T/C [13] [%] | viability, T/C [14] [%] | viability, T/C [15] [%] | further results
Nc1ccccc1NC(=O)c1ccc(CNC(=O)OCc2cccnc2)cc1 + Cc1ccccc1N=Nc1ccc(NC(=O)c2ccnn2C)c(C)c1 | 5.08 | 5.64 | 5.44 | 5.35 | 4.81 | 116 | 93.3 | 106 | 129 | 80 | 7.02 | 116 | 103 | 119 | 113 | 93 | 7.54 | 116 | 107 | 117 | viability, T/C [16]: 130%; viability, T/C [17]: 86.4%; viability, T/C [18]: 9.07%; viability, T/C [19]: 112%; viability, T/C [20]: 106%; viability, T/C [21]: 118%; viability, T/C [22]: 113%; viability, T/C [23]: 86.8%; viability, T/C [24]: 6.35%; viability, T/C [25]: 93.4%; viability, T/C [26]: 108%; viability, T/C [27]: 105%; viability, T/C [28]: 109%; viability, T/C [29]: 74.4%; viability, T/C [30]: 7.59%
O=C(C=Cc1cccc(S(=O)(=O)Nc2ccccc2)c1)NO + Cc1ccccc1N=Nc1ccc(NC(=O)c2ccnn2C)c(C)c1 | 6.62 | 5.96 | 6.36 | 5.56 | 4.22 | 98.3 | 97.5 | 110 | 139 | 127 | 14 | 95.2 | 103 | 127 | 126 | 104 | 5.9 | 110 | 102 | 116 | viability, T/C [16]: 126%; viability, T/C [17]: 111%; viability, T/C [18]: 10.7%; viability, T/C [19]: 102%; viability, T/C [20]: 102%; viability, T/C [21]: 105%; viability, T/C [22]: 129%; viability, T/C [23]: 89.6%; viability, T/C [24]: 9.1%; viability, T/C [25]: 94.4%; viability, T/C [26]: 101%; viability, T/C [27]: 98.5%; viability, T/C [28]: 94.1%; viability, T/C [29]: 65.4%; viability, T/C [30]: 3.82%
O=C(c1cc(Cc2n[nH]c(=O)c3ccccc23)ccc1F)N1CCN(C(=O)C2CC2)CC1 + Cc1ccccc1N=Nc1ccc(NC(=O)c2ccnn2C)c(C)c1 | > 10 | > 10 | > 10 | > 10 | > 10 | 106 | 109 | 89 | 117 | 114 | 112 | 106 | 99.9 | 89.6 | 93.5 | 92.7 | 106 | 99.7 | 106 | 98.1 | viability, T/C [16]: 106%; viability, T/C [17]: 110%; viability, T/C [18]: 111%; viability, T/C [19]: 100%; viability, T/C [20]: 106%; viability, T/C [21]: 92.8%; viability, T/C [22]: 100%; viability, T/C [23]: 89.3%; viability, T/C [24]: 92.8%; viability, T/C [25]: 106%; viability, T/C [26]: 107%; viability, T/C [27]: 110%; viability, T/C [28]: 111%; viability, T/C [29]: 98.9%; viability, T/C [30]: 101%
